Assay results reported in patent US20120077818A1, “COMPOSITIONS COMPRISING TRANSNORSERTRALINE AND SEROTONIN RECEPTOR 1A AGONISTS/ANTAGONISTS AND USES THEREOF” (Sunovion Pharmaceuticals Inc., priority 2009, published 2012).
Entries after “also recorded” stand apart in the source; their conditions may differ.

Test system: dorsal raphe 5-HT neurons
Assay: In vivo electrophysiological recordings of dorsal raphe (DR) 5-HT neurons
Parameters: species or system rat
Method: Male Sprague Dawley rats (Charles River, St. Constant, QC) weighing 250 to 300 g, were used for the experiments. They were housed individually and kept under standard laboratory conditions (12:12 hour light/dark cycle with free access to food and water). All animals were handled according to the guidelines of the Canadian Council on Animal Care (CCAC) and protocols in this study were approved by the local Animal Care Committee (Ottawa Health Research Institute, Ottawa, ON, Canada).
Rats were anaesthetized with chloral hydrate (400 mg/kg; i.p.) and placed into a stereotaxic frame. The extracellular recordings of 5-HT neurons in the dorsal raphe (“DR”) were carried out using single-barrelled glass micropipettes (R&D Scientific Glass, Spencerville, Md.) preloaded with a 2 M NaCl solution. Their impedance typically ranged between 4-7 MΩ.
The single-barrelled glass micropipettes were positioned using the following coordinates (in mm from lambda): AP, +1.0 to 1.2; L, 0±0.1; V, 5 to 7. The presumed 5-HT neurons were then identified using the following criteria: a slow (0.5-2.5 Hz) and regular firing rate and long-duration (2-5 ms) bi- or triphasic extracellular waveform (Aghajanian and Vandermaelen, 1982b). […] This occasional firing pattern of 5-HT neurons was analyzed by spike interval burst analysis following the criteria set by Hajos et al. The onset of a burst was defined as the occurrence of two spikes with an interspike interval shorter than 0.005 s.
The percent of baseline firing rate were measured 60 seconds after systemic administration of the triple reuptake inhibitor. Various parameters were determined to examine the electrophysiological effects of co-administration of a transnorsertraline with WAY-100635. These parameters included the number of single spikes, bursts, cells per track and the firing rate of 5-HT neurons.
Electrophysiological data expressed as means±S.E.M of percent of baseline firing rate or as means±S.E.M of single spikes or bursts measured from the same neurons. Data were analyzed by using a one- or two-ways analysis of variance (ANOVA), with treatment, treatment and pre-treatment or treatment and brain region as main factors. Fisher's protected least significant difference test (Fisher's PLSD-test) was used to analyze the statistical significance between groups. The paired Student's t test was used in experiments comparing two groups. In each experiment, a level of p<0.05 was accepted as evidence for a statistically significant effect.

[1] = rats pre-treated with WAY-100635

COc1ccccc1N1CCN(CCN(C(=O)C2CCCCC2)c2ccccn2)CC1 [WAY-100635, reference compound]
spontaneous firing rate of DR 5-HT neurons (effect in words) (WAY-100635 alone, 100 μg/kg iv): did not alter
spontaneous firing rate of DR 5-HT neurons (WAY-100635 alone, 100 μg/kg iv, printed as 1.3±0.1 vs 1.4±0.1 (n=8), in Hz (unit assumed)): 1.4±0.1

N[C@@H]1CC[C@@H](c2ccc(Cl)c(Cl)c2)c2ccccc21 [(1R,4S)-transnorsertraline, (1R,4S)-trans-4-(3,4-dichlorophenyl)-1,2-3,4-tetrahydro-1-naphthalenamine]
number of bursts of 5-HT neurons (effect in words) [1]: significantly increased
number of single spikes of 5-HT neurons (effect in words) [1]: significantly increased
DR 5-HT firing rate (effect in words) (rats pre-treated with WAY-100635, (1R,4S)-transnorsertraline 0.5-2 mg/kg iv): significant increase; also recorded: markedly increased
